US10759796B2, “CXCR4 inhibitors and uses thereof” (X4 Pharmaceuticals, Inc., priority 2016, dated 2020)

Key:
[1] = biological target: CXCR-4 transfected U87 cell line (U87.CXCR4) (Homo sapiens (Human), UniProt P61073); assay: Intracellular CXCL-12-induced calcium mobilization assay (FLIPR); format: cell-based; conditions: U87.CXCR4 cells, CXCL-12 25-50 ng/mL; read-out: IC50 CXCL-12 Ca2+ flux U87.CXCR4+
Method: Example 28: REGA Screening Assay
Intracellular CXCL-12-Induced Calcium Mobilization Assay
Intracellular calcium mobilization induced by chemokines or chemokine-derived peptides were evaluated using a calcium responsive fluorescent probe and a FLIPR system. The CXCR-4 transfected U87 cell line (U87.CXCR4) cells were seeded in gelatine-coated black-wall 96-well plates at 20,000 cells per well and incubated for 12 hours. Cells were then loaded with the fluorescent calcium probe Fluo-2 acetoxymethyl at 4 μM final concentration in assay buffer (Hanks' balanced salt solution with 20 mM HEPES buffer and 0.2% bovine serum albumin, pH 7.4) for 45 min at 37° C. The intracellular calcium mobilization induced by the CXCL-12 (25-50 ng/mL) was then measured at 37° C. by monitoring the fluorescence as a function of time in all the wells simultaneously using a fluorometric imaging plate reader (FLIPR Tetra, Molecular Devices).

[2] = biological target: Jurkat cells expressing CXCR4 (Homo sapiens (Human), UniProt P61073); assay: Chemokine (CXCL12-AF647) binding inhibition assay; conditions: CXCL12-AF647 25 ng/mL, read-out: IC50 CXCL-12 binding Jurkat
Method: Chemokine (CXCL12-AF647) Binding Inhibition Assay
Jurkat cells expressing CXCR4 were washed once with assay buffer (Hanks' balanced salt solution with 20 mM HEPES buffer and 0.2% bovine serum albumin, pH 7.4) and then incubated for 15 min at room temperature with the test compounds diluted in assay buffer at dose-dependent concentrations. Subsequently, CXCL12-AF647 (25 ng/mL) was added to the compound-incubated cells. The cells were incubated for 30 min at room temperature. Thereafter, the cells were washed twice in assay buffer, fixed in 1% paraformaldehyde in PBS, and analyzed on the FL4 channel of a FACSCalibur flow cytometer equipped with a 635-nm red diode laser (Becton Dickinson, San Jose, Calif., USA).
The percentages of inhibition of CXCL12-AF647 binding were calculated according to the formula: [1−((MFI−MFINC)/(MFIPC−MFINC))]×100 where MFI is the mean fluorescence intensity of the cells incubated with CXCL12-AF647 in the presence of the inhibitor, MFINC is the mean fluorescence intensity measured in the negative control (i.e., autofluorescence of unlabeled cells), and MFIPC is the mean fluorescence intensity of the positive control (i.e., cells exposed to CXCL12-AF647 alone).

in vitro = conditions: human, Caco-2, pH 7.4
Method: Example 28: Caco-2 Permeability Assay
The goal of this assay was to evaluate the intestinal absorption potential of drug candidates using Caco-2 cell lines.
1. Prewarm Prewarm HBSS Buffer in 37° C. water bath
2. Sonicate Take compounds from −20° C., sonicate for a few minutes (no less than 1 minute)
HBSS buffer with 0.3% DMSO and 5 μM LY: add 150 μL DMSO and 50 μL LY (5 mM) into 50 ml HBSS buffer (pH 7.4).
HBSS buffer with 0.1% DMSO and 5 μM LY: add 50 μL DMSO and 50 μL LY (5 mM) into 50 mL HBSS buffer (pH 7.4).
HBSS buffer with 0.3% DMSO: add 150 μL DMSO into 50 ml HBSS buffer (pH 7.4).
HBSS buffer with 0.1% DMSO: add 50 μL DMSO into 50 ml HBSS buffer (pH 7.4).
Receiver Solution Buffer:
Prepare HBSS buffer with 0.4% DMSO: add 200 μL DMSO into 50 ml HBSS buffer (pH 7.4).
Prepare HBSS buffer with 0.4% DMSO and 5 μM LY: add 200 μL DMSO and 50 μL LY (5 mM) into 50 ml HBSS buffer (pH 7.4).
4. Measure TEER Take cell culture plate out of incubator, wash the cell monolayers with HBSS buffer, and then measure TEER values at Rm temperature. 5. Centrifuge Centrifuge the compound solution (from step 3) at 4000 rpm for 5 min before loading to donor chambers. 6. Dosing Add solution based on the volumes listed in the following table (make sure to take extra 100 μL of donor sample for TO as Backup).
7. Apical LYT0 Samples To determine LY concentration in the apical chember, take 100 μL sample from apical chambers into an opaque plate for LYT0. 8. Prewarm Prewarm apical and basolateral plates at 37° C. for about 5 min, then begin transport by placing the apical plate onto basolateral plate. 9. Incubation Keep the plates in incubator at 37° C. for 90 min. 10. Standard Curve Preparation
For 300 μM compound solution, add 6 μL of compound stock solution into 192 μL of MeOH/H2O (1:1).
Prepare Working Solution in MeOH/H2O (1:1)
3 μL (20×)+57 μL of 0.4% DMSO HBSS+60 μL ACN with IS (Osalmid or Imipramine) - - - 120 μL (1×)
11. Transport Termination Separate the apical plate from the basolateral plate after 90-min incubation.
12. Measure LY Take 100 μL samples from basolateral plate to an opaque plate as LYT90.
13. Measure LY concentrations for LYT0 and LYT90 by Fluorometer (at excitation of 485 nm/emission of 535 nm).
Study details: Test concentration 10 μM
Test systems: Caco-2/HBSS solution
Incubation conditions: 0, 90 min at 37° C.
Sample size: Duplicates (n=2)
Bioanalytical method: LC-MS/MS
For Millicell-24 Cell Culture Plates: surface area of the membrane=0.7 cm^2, VA=0.8 mL (A-to-B) or 0.4 mL (B-to-A)
1. Papp values were calculated based on calculated concentrations.
The compound numbers correspond to the compound numbers in Table 1.

Chain of Jurkat cells expressing CXCR4 (P61073 whole entry): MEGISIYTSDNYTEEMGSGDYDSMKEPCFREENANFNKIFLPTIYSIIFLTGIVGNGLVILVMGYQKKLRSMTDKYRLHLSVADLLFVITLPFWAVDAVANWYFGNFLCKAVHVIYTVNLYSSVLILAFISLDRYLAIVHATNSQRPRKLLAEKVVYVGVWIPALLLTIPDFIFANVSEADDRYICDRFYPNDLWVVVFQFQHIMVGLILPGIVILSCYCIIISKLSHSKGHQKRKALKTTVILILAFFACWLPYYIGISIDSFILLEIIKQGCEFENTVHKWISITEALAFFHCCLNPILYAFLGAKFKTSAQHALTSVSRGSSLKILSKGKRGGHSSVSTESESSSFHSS
Chain of CXCR-4 transfected U87 cell line (U87.CXCR4) (P61073 whole entry): as above

| SMILES | IC50 [1] | IC50 [2] | Papp A→B at 90 min, 10 μM (in vitro) | Papp B→A at 90 min, 10 μM (in vitro) | efflux ratio at 90 min, 10 μM (in vitro) |
| --- | --- | --- | --- | --- | --- |
| Cc1cccnc1[C@@H]1CCC[C@H](c2cn3c(N4C5CCC4CNC5)cccc3n2)N1C [Compound I-110] | 0.01 to 100 nM | 0.01 to 100 nM | 0.1 to 10 ×10⁻⁶ cm/s | 10 to 30 ×10⁻⁶ cm/s | > 30 |
| CCOCc1c([C@H]2CCC[C@@H](c3ncccc3C)N2C)nc2cccc(N3CCN(C(C)C)CC3)n12 [Compound I-57] | 0.01 to 100 nM | 0.01 to 100 nM | 0.1 to 10 ×10⁻⁶ cm/s | 10 to 30 ×10⁻⁶ cm/s | 0.1 to 10 |
| CCN1CCN(c2cccc3nc([C@H]4CCC[C@@H](c5ncccc5C)N4C)cn23)CC1 [Compound I-13] | 0.01 to 100 nM | 0.01 to 100 nM | 0.1 to 10 ×10⁻⁶ cm/s | 10 to 30 ×10⁻⁶ cm/s | 0.1 to 10 |
| CC(C)c1cccnc1[C@@H]1CCC[C@H](c2cn3c(N4CCN(C)CC4)cccc3n2)N1C [Compound I-51] | 100 to 1000 nM | 0.01 to 100 nM | 0.1 to 10 ×10⁻⁶ cm/s | 10 to 30 ×10⁻⁶ cm/s | 0.1 to 10 |
| Cc1cccnc1[C@@H]1CCC[C@H](c2nc3cccc(N4CCN(C)CC4)n3c2COC(C)C)N1C [Compound I-48] | 100 to 1000 nM | 0.01 to 100 nM | 0.1 to 10 ×10⁻⁶ cm/s | 10 to 30 ×10⁻⁶ cm/s | 0.1 to 10 |
| Cc1cccnc1[C@@H]1CCC[C@H](c2nc3ccccn3c2[C@H](O)C2CCN(C)CC2)N1C [Compound I-55] | ≥ 1000 nM | 0.01 to 100 nM | 0.1 to 10 ×10⁻⁶ cm/s | 0.1 to 10 ×10⁻⁶ cm/s | 0.1 to 10 |
| Cc1cccnc1[C@H]1CCC[C@@H](c2nc3cccc(N4CCN(C)CC4)n3c2F)N1C (stereo in doubt) [Compound I-34] | 0.01 to 100 nM | 0.01 to 100 nM | 10 to 30 ×10⁻⁶ cm/s | 0.1 to 10 ×10⁻⁶ cm/s | 0.1 to 10 |
| Cc1cccnc1[C@@H]1CCC[C@H](c2nc3ccccn3c2CN2CCN(C(C)C)CC2)N1C [Compound I-39] | 100 to 1000 nM | 0.01 to 100 nM | 0.1 to 10 ×10⁻⁶ cm/s | > 30 ×10⁻⁶ cm/s | 10 to 30 |
| CNCCCc1c([C@@H]2CCC[C@H](c3ncccc3C)N2C)nc2ccccn12 (stereo in doubt) [Compound I-27] | 0.01 to 100 nM | 0.01 to 100 nM | 0.1 to 10 ×10⁻⁶ cm/s | 0.1 to 10 ×10⁻⁶ cm/s | 10 to 30 |

Continued, values first:

| IC50 [1] | IC50 [2] | Papp A→B at 90 min, 10 μM (in vitro) | Papp B→A at 90 min, 10 μM (in vitro) | efflux ratio at 90 min, 10 μM (in vitro) | SMILES |
| --- | --- | --- | --- | --- | --- |
| ≥ 1000 nM | 100 to 1000 nM | 0.1 to 10 ×10⁻⁶ cm/s | 0.1 to 10 ×10⁻⁶ cm/s | 0.1 to 10 | CCN1CCN(c2cccc3nc([C@H]4CCC[C@@H](c5ncccc5C(C)C)N4C)cn23)CC1 [Compound I-111] |
| ≥ 1000 nM | 100 to 1000 nM | 10 to 30 ×10⁻⁶ cm/s | 10 to 30 ×10⁻⁶ cm/s | 0.1 to 10 | Cc1cccnc1[C@@H]1CCC[C@H](c2nc3ccccn3c2CN2CCOCC2)N1C [Compound I-73] |
| 100 to 1000 nM | 0.01 to 100 nM | 0.1 to 10 ×10⁻⁶ cm/s | 0.1 to 10 ×10⁻⁶ cm/s | 0.1 to 10 | CN1CCN(c2cccc3nc([C@H]4CCC[C@@H](c5ncccc5C(F)(F)F)N4C)cn23)CC1 [Compound I-80] |
| 0.01 to 100 nM | 0.01 to 100 nM | 0.1 to 10 ×10⁻⁶ cm/s | 0.1 to 10 ×10⁻⁶ cm/s | 0.1 to 10 | Cc1cccnc1[C@@H]1CCC[C@H](c2nc3cccc(N4CCN(C)CC4)n3c2Cl)N1C(C)C [Compound I-127] |
| ≥ 1000 nM | ≥ 1000 nM | 0.1 to 10 ×10⁻⁶ cm/s | 10 to 30 ×10⁻⁶ cm/s | 0.1 to 10 | COc1cccnc1[C@@H]1CCC[C@H](c2nc3cccc(N4CCNC5(CC5)C4)n3c2Cl)N1 [Compound I-175] |
| 0.01 to 100 nM | 0.01 to 100 nM | 0.1 to 10 ×10⁻⁶ cm/s | 10 to 30 ×10⁻⁶ cm/s | 0.1 to 10 | Cc1cccnc1[C@@H]1CCC[C@H](c2cn3c(N4CCN(C)CC4)c(F)ccc3n2)N1C [Compound I-106] |
| ≥ 1000 nM | 100 to 1000 nM | 0.1 to 10 ×10⁻⁶ cm/s | 10 to 30 ×10⁻⁶ cm/s | > 30 | CO[C@@H](c1c([C@H]2CCC[C@@H](c3ncccc3C)N2C)nc2ccccn12)C1CCN(C)CC1 [Compound I-105] |
| 0.01 to 100 nM | 0.01 to 100 nM | 0.1 to 10 ×10⁻⁶ cm/s | 10 to 30 ×10⁻⁶ cm/s | 0.1 to 10 | CN1CCN(c2cccc3nc([C@H]4CCC[C@@H](c5ncccc5Cl)N4C)c(CO)n23)CC1 [Compound I-116] |
| 100 to 1000 nM | 0.01 to 100 nM | 10 to 30 ×10⁻⁶ cm/s | 10 to 30 ×10⁻⁶ cm/s | 0.1 to 10 | Cc1cccnc1[C@@H]1CCC[C@H](c2nc3cccc(N4CCN(C5CC5)CC4)n3c2CO)N1C [Compound I-112] |
| 0.01 to 100 nM | 0.01 to 100 nM | 0.1 to 10 ×10⁻⁶ cm/s | 10 to 30 ×10⁻⁶ cm/s | 10 to 30 | Cc1cccnc1[C@@H]1CCC[C@H](c2cn3c(N4CCN(C)CC4)cccc3n2)N1CCO [Compound I-87] |
